Experiment [1] deals with Dictyostelium discoideum. Description: Inhibitory concentration against Dictyostelium discoideum cell growth. In kind it is functional, organism-based, Fungi.
A short description of experiment [2]: Effective concentration against human Gamma delta T cells. Format: functional, cell-based. The note with it: t-cell.
The species entered for experiment [3] is Mus musculus. Description: In vitro inhibitory concentration against bone resorption in 17 day old fetal mouse metatarsals. In kind it is functional.

As for `O=P([O-])(O)C(O)(C[n+]1ccc(Cc2ccccc2)cc1)P(=O)(O)O` (stereo unspecified), in experiment [1], the half-maximal inhibitory concentration (IC50) (as a rule, the midpoint of a concentration-inhibition curve) is 12 µM. Also, the EC50 (in general, the concentration giving half of the maximal effect) in experiment [2] was determined as 150 µM.

`O=P([O-])(O)C(O)(C[n+]1ccccc1)P(=O)(O)O` (stereo unspecified): the IC50 is 0.67 µM in experiment [3] and 2.1 µM in experiment [1]. The compound further had an EC50 in experiment [2] of 4.8 µM.

On to `CCc1ccc[n+](CC(O)(P(=O)([O-])O)P(=O)(O)O)c1` (stereo unspecified), for which, in experiment [1], the IC50 was 5.6 µM. In experiment [2], this compound had an EC50 of 4.4 µM.

On to `O=P([O-])(O)C(O)(C[n+]1cccc(-c2ccccc2)c1)P(=O)(O)O` (stereo unspecified), for which the half-maximal inhibitory concentration (IC50) in experiment [3] came to 0.41 µM; in experiment [1], 3.8 µM. The same compound displayed an EC50 in experiment [2] of 4.1 µM.

`Cc1cccc(Cc2ccc[n+](CC(O)(P(=O)([O-])O)P(=O)(O)O)c2)c1` (stereo unspecified) yielded an IC50 in experiment [1] of 9.2 µM. The midpoint of the response in experiment [2], the EC50, lay at 44 µM.

In the case of `O=P([O-])(O)C(O)(C[n+]1cccc2cc(Cl)ccc21)P(=O)(O)O` (stereo unspecified), in experiment [1], inhibition was half-maximal at 72 µM (IC50). In addition, the midpoint of the response in experiment [2], the EC50, lay at 56 µM.

The compound `Nc1c[n+](CC(P(=O)([O-])O)P(=O)(O)O)ccn1` (stereo unspecified) gave an IC50 in experiment [3] of 0.22 µM.

As for `Cc1ccc[n+](CC(O)(P(=O)([O-])O)P(=O)(O)O)c1` (stereo unspecified), the IC50 is 0.22 µM in experiment [3] and 1.5 µM in experiment [1]. Moreover, the EC50 in experiment [2] was 4.5 µM.

`O=P([O-])(O)C(O)(C[n+]1cccc(-c2ccc(O)cc2)c1)P(=O)(O)O` (stereo unspecified): in experiment [1], the IC50 came to 2.9 µM. Besides, the EC50 in experiment [2] stood at 2.5 µM.

Take `O=P([O-])(O)C(O)(C[n+]1cccc(F)c1)P(=O)(O)O` (stereo unspecified): the IC50 in experiment [3] was 0.075 µM; in experiment [1] it was 4.6 µM. In experiment [2], the EC50 was found to be 2.7 µM.

Take `COc1ccc[n+](CC(O)(P(=O)([O-])O)P(=O)(O)O)c1` (stereo unspecified): the figures for the IC50 in experiment [3] and in experiment [1] were 0.37 µM and 6 µM, respectively. In experiment [2], this compound showed an EC50 of 9.3 µM.

For the compound `O=P([O-])(O)C(O)(C[n+]1cccc(Cc2ccccc2)c1)P(=O)(O)O` (stereo unspecified), the IC50 in experiment [1] stood at 11 µM. In experiment [2], this compound gave an EC50 of 91 µM.

Turning to `CCCCc1ccc[n+](CC(O)(P(=O)([O-])O)P(=O)(O)O)c1` (stereo unspecified), the IC50 in experiment [1] was 2.9 µM. For the same compound, it took 4.3 µM to reach a half-maximal effect in experiment [2] (EC50).

Regarding `O=P([O-])(O)C(O)(C[n+]1ccc2ccccc2c1)P(=O)(O)O` (stereo unspecified), the IC50 in experiment [1] was found to be 20 µM. Moreover, in experiment [2], the EC50 was 30 µM.

`NCCCC(O)(P(=O)(O)O)P(=O)(O)O` [ALENDRONIC ACID]: in experiment [3], the IC50 is 0.29 µM. A half-maximal response in experiment [2] (EC50) required 32 µM.

In experiment [3], `NCCC(O)(P(=O)(O)O)P(=O)(O)O` [PAMIDRONIC ACID] had an IC50 of 1.6 µM. Further, the EC50 in experiment [2] is 43 µM.

In turn, `O=P(O)(O)C(O)(Cc1cccnc1)P(=O)(O)O` [RISEDRONIC ACID] had an IC50 in experiment [3] of 0.3 µM. In experiment [2], a half-maximal effect (EC50) was put at 5 µM.

`O=P(O)(O)C(O)(Cn1ccnc1)P(=O)(O)O` [ZOLEDRONIC ACID]: the IC50 in experiment [3] was 0.034 µM; in experiment [1] it was 2.9 µM. Besides, the EC50 in experiment [2] was determined as 5.4 µM.
